Values joined by “and” are separate entries in the source; they are usually repeats but may differ in a detail not shown here. Equal entries are not always repeated. Structures can show the parent of a compound that is named as a salt. Where two headings read alike, the source gives them in different places.

Consider 20 molecules from US7179819B2, “VLA-4 inhibitor compounds” (Daiichi Pharmaceutical Co., Ltd., priority 1999, dated 2007).

Data set [1] concerns eosinophil infiltration. Description: Murine model of Ascaris-induced bronchial inflammation: eosinophil infiltration into bronchoalveolar lavage fluid. The note with it: mouse. It counts as in vivo. On the procedure: The VLA-4 inhibitors may be further characterized in in vivo assays. One such assay examines the inhibition of eosinophil infiltration into the bronchoalveolar lavage fluid in the mouse (murine) model. In this assay, the animals are treated with cyclophosphamide on day 0. On days 2 and 14, the animals are immunized intraperitoneally with Ascaris suum extract. Seven days later, the animals are treated with various doses of the VLA-4 inhibitor. Shortly after drug administration, the animals are challenged with Ascaris suum extract by instillation into the trachea. Bronchoalveolar lavage of the animal is performed by instilling saline into the lung, 48 hours later. Total cell and eosinophil counts in the lavage are determined.

The nature of another data set: in vivo. The note with it: monkey, serum, intravenous, 2 mg/kg.
The nature of data set [2]: Mouse bio-assay: serum concentration after oral dosing, determined by direct binding assay of diluted serum. The note with it: female, Balb/c, serum, po.
Protocol: A compound was dissolved or suspended with an appropriate solvent at 1 mg/mL. Female Balb/c mice (7–9 weeks old) were given the compound orally. Blood samples were collected from the postcaval vein of the anesthetized mice after fifteen minutes. Serum was prepared and stored at −20° C. Serum concentration of the compound was determined from inhibitory activities of the diluted serum by a direct binding assay using VLA-4-expressing cells and VCAM-IgG fusion protein. Serum concentration determined by this method correlated well with the concentration determined by LC/MS/MS methodologies.
Data set [3] can be described thus: Pharmacokinetic evaluation in rat. It counts as in vivo. The note with it: for AUC (total area under the plasma concentration versus time curve): LC/MS/MS; for clearance / MRT: plasma, 10 mg/kg; for clearance: read-out: CL (apparent plasma clearance); for MRT: read-out: MRT (mean residence time).
Data set [4] deals with eosinophil infiltration. The data set is described as follows: Eosinophil accumulation model in the rat (Compound 48/80 injected into pleural cavities). The class given is in vivo, male Sprague Dawley rats. The note with it: 50 mg/kg 2 days, s.c., b.i.d. at 0 and 8 hours. How it is done:
The compounds of the present invention may also be further characterized in other in vivo assays, such as the eosioophil accumulation model tested in the rat. Fifty μg of Compound 48/80 was injected into the pleural cavities of male Sprague Dawley rats. After 24 hrs, each cavity was washed twice with Hank's Balanced Salt Solution containing 0.2% EDTA. Total cell and eosinophil counts were determined. Test compounds were given intraveneously, orally or subcutaneously, b.i.d. at 0 and 8 hours.

Where [5] appears, read: iv, 10 mg/kg (i.v.), line of AUC 0–6 hr.
The mark [6] stands for this setting: iv, 10 mg/kg (i.v.), line of AUC 0–∞.

Take “4-(N′-2-methylphenylurea)phenylacetyl-LDVP-OH [reference compound]”: the “% Inhibition of Eosinophil Infiltration” value with eosinophil infiltration [1] (oral dosage of 50 mg/kg) was −2%.

Take `CC(C)NCC(O)COc1ccc(CC(N)=O)cc1` (centres unmarked) [ATENOLOL, reference compound]: in the data set “in vivo”, the concentration at 5 min was 4060 ng/mL, the concentration at 30 min amounted to 1190 ng/mL, the concentration at 1 hr worked out at 771 ng/mL and the concentration at 2 hr worked out at 479 ng/mL. In “in vivo”, this molecule displayed a concentration at 4 hr of 348 ng/mL and a concentration at 8 hr of 137 ng/mL.

As a reminder, the melting point is the temperature of the solid-liquid transition. `COc1cc(C(=O)O)ccc1C#CC1CCCN1C(=O)Cc1ccc(NC(=O)Nc2ccccc2C)c(OC)c1` (centres unmarked) [Compound 36, 3-methoxy4-[2-[1-[3-methoxy4-[N′-(2-methylphenyl)ureido]phenylacetyl]-2-pyrrolidinyl]ethynyl]benzoic acid] displayed a melting point of 141 to 145 °C. The “inhibition of eosinophil infiltration” value in the data set with eosinophil infiltration [1] (oral dosage of 30 mg/kg) turned out to be 49%.

`Cc1ccccc1NC(=O)Nc1ccc(CC(=O)N2C[C@@H](F)C[C@H]2COc2ccc(C(=O)O)cc2)cc1C` [Compound 78, 4-[(4S)-fluoro-1-[3-methyl-4-[N′-(2-methylphenyl)ureido]phenylacetyl]-(2S)-pyrrolidinyl]methoxybenzoic acid] displayed a concentration at 15 min in data set [2] (10 mg/kg) of 368 ng/mL.

What is called MRT is the average time that molecules of a dose stay in the body. For `Cc1cc(CC(=O)N2C[C@@H](F)C[C@H]2COc2ccc(C(=O)O)cc2)ccc1NC(=O)Nc1ccccc1Cl` [Compound 79, 4-[1-[4-[N′-(2-chlorophenyl)ureido]-3-methylphenylacetyl]-(4S)-fluoro-(2S)-pyrrolidinyl]methoxybenzoic acid], the “AUC (total area under the plasma concentration versus time curve)” value in data set [3] (10 mg/kg (i.v.), 0–6 hr) is on record as 5259 (0–6 hr) ng · h/mL; in data set [3] (10 mg/kg (i.v.), 0–∞) it was 5389 (0–∞) ng · h/mL; in data set [3] (10 mg/kg (p.o.), 0–6 hr), 22119 (0–6 hr) ng · h/mL; in data set [3] (10 mg/kg (p.o.), 0–∞), 24867 (0–∞) ng · h/mL. Further, the “CL (apparent plasma clearance)” value in data set [3] (10 mg/kg (p.o.), line of AUC 0–6 hr) turned out to be 8.5 mL/min/kg; in data set [3] (10 mg/kg (p.o.), line of AUC 0–∞) it was 6.7 mL/min/kg. Also, the figures for the clearance in data set [3] (setting [5]) and in data set [3] (setting [6]) were 31.7 mL/min/kg and 30.9 mL/min/kg, respectively. The MRT in data set [3] (setting [5]) was 24 min; in data set [3] (setting [6]) it was 36 min; in data set [3] (po, 10 mg/kg (p.o.), line of AUC 0–6 hr) it was 30 min; in data set [3] (po, 10 mg/kg (p.o.), line of AUC 0–∞) it was 42 min. The “% Inhibition of Eosinophil Infiltration” value in the data set on eosinophil infiltration [1] (30 mg/kg b.i.d. × 2 days, i.v.) was found to be 35.9%. In data set [2] (10 mg/kg), the concentration at 15 min is 618 ng/mL.

In the case of `O=C(Nc1ccccc1Cl)Nc1ccc(CC(=O)N2C[C@@H](F)C[C@H]2COc2ccc(C(=O)O)cc2)cc1Br` [Compound 95, 4-[1-[3-bromo-4-[N′-(2-chlorophenyl)ureido]phenylacetyl]-(4S)-fluoro-(2S)-pyrrolindinyl]methoxybenzoic acid], the “% Inhibition of Eosinophil Infiltration” value in the data set with eosinophil infiltration [4] is recorded as 40.9%.

Molecule `Cc1ccccc1NC(=O)Nc1ccc(CC(=O)N2C[C@@H](F)C[C@H]2COc2ccc(C(=O)O)cc2)c(F)c1F` [Compound 97, 4-[1-[4-[N′-(2-methylphenyl)ureido]-2,3 difluorophenylacetyl]-(4S)-fluoro-(2S)-pyrrolidinylmethoxy]benzoic acid] returned a concentration at 15 min in data set [2] (10 mg/kg) of 1730 ng/mL.

`Cc1ccccc1NC(=O)Nc1cc(F)c(CC(=O)N2C[C@@H](F)C[C@H]2COc2ccc(C(=O)O)cc2)cc1F` [Compound 98, 4-[1-[4-[N′-(2-methylphenyl)ureido]-2,5-difluorophenylacetyl]-(4S)-fluoro-(2S)-pyrrolidinylmethoxy]benzoic acid] yielded a concentration at 15 min in data set [2] (10 mg/kg) of 2800 ng/mL.

Take `COc1cc(CC(=O)N2C[C@@H](Cl)C[C@H]2COc2ccc(C(=O)O)cc2)ccc1NC(=O)Nc1ccccc1Cl` [Compound 102, 4-[(4S)-chloro-1-[3-methoxy-4-[N′-(2-chlorophenyl)ureido]phenylacetyl]-(2S)-pyrrolidinyl]methoxybenzoic acid]: the melting point fell in the range of 126 to 131 °C. This molecule gave a concentration at 15 min in data set [2] (10 mg/kg) of 503 ng/mL.

The molecule `COc1cc(CC(=O)N2C[C@@H](Oc3ccc4ccccc4c3)C[C@H]2COc2ccc(C(=O)O)cc2)ccc1NC(=O)Nc1ccccc1Cl` [Compound 124, 4-[(2S,4S)-1-[4-[N′-(2-chlorophenyl)ureido]-3-methoxyphenylacetyl]-4-(2-naphtyloxy)-2-pyrrolidinyl]methoxybenzoic acid] displayed a concentration at 15 min in data set [2] (10 mg/kg) of 841 ng/mL.

Molecule `COc1cc(CC(=O)N2C[C@@H](OC)C[C@H]2COc2ccc(C(=O)O)cc2)ccc1NC(=O)Nc1ccccc1Br` [Compound 134, 4-[(2S,4S)-1-[4-[N′-(2-bromophenyl)ureido]-3-methoxyphenylacetyl]-4-methoxy-2-pyrrolidinyl]methoxybenzoic acid] had a concentration at 15 min in data set [2] (10 mg/kg) of 224 ng/mL.

Take `COc1cc(CC(=O)N2[C@H](COc3ccc(C(=O)O)cc3)CC[C@@H]2c2ccccc2)ccc1NC(=O)Nc1ccccc1Cl` [Compound 146, 4-[1-[4-[N′-(2-chlorophenyl)ureido]-3-methoxyphenylacetyl]-5-(R)-phenyl-2-(S)-pyrrolidinylmethoxy]benzoic acid]: in data set [2] (10 mg/kg), the concentration at 15 min worked out at 527 ng/mL.

Turning to `COc1cc(CC(=O)N2C3CCCCC3C[C@H]2COc2ccc(C(=O)O)cc2)ccc1NC(=O)Nc1ccccc1Cl` (stereo partly drawn) [Compound 166, 4-[1-[4-[N′-(2-chlorophenyl)ureido]-3-methoxyphenylacetyl]-(2S)-octahydroindolylmethoxy]benzoic acid], the melting point fell in the range of 133 to 136 °C. In addition, the concentration at 15 min in data set [2] (10 mg/kg) was 360 ng/mL.

In the case of `COc1cc(CC(=O)N2C3CCCCC3C[C@H]2COC2CCC(C(=O)O)CC2)ccc1NC(=O)Nc1ccccc1Br` (stereo partly drawn) [Compound 179, cis-4-[-1-[4-[N′-(2-bromophenyl)ureido]-3-methoxylphenylacetyl]-(2S)-octahydroindolylmethoxy]cyclohexanecarboxylic acid], the melting point was 115 to 120 °C. The concentration at 15 min in data set [2] (10 mg/kg) was 428 ng/mL.

Consider `C#CCN(CCOc1ccc(C(=O)O)cc1)C(=O)Cc1ccc(NC(=O)Nc2ccccc2Cl)c(OC)c1` [Compound 309, 4-[2-N-[4-[N′-(2-chlorophenyl)ureido]-3-methoxyphenyl]-N-propargylacetamido]-ethoxybenzoic acid], for which the concentration at 15 min in data set [2] (10 mg/kg) turned out to be 669 ng/mL.

In the case of `C=CCN(CCOc1ccc(C(=O)O)cc1)C(=O)Cc1ccc(NC(=O)Nc2ccccc2Br)c(OC)c1` [Compound 311, 4-[2-N-allyl-N-[4-[N′(2-bromophenyl)ureido]-3-methoxyphenyl]acetamido]ethoxybenzoic acid], the “% Inhibition of Eosinophil Infiltration” value in the data set with eosinophil infiltration [1] (50 mg/kg t.i.d. × 2 days, p.o.) is 42.5%; with eosinophil infiltration [1] (50 mg/kg t.i.d. × 2 days, s.c., 50 mg/kg) it was 80.2% and 49.3%.

Consider `COC(=O)c1ccc(OCCN(CCN2CCOCC2)C(=O)Cc2ccc(NC(=O)Nc3ccccc3C)c(OC)c2)cc1` [Compound 314, methyl 4-[2-N-[2-(4-morpholinyl)ethyl]-N-[3-methoxy-4-[N′-(2-methylphenyl)ureido]phenyl]-acetamido]ethoxybenzoate], for which the “% Inhibition of Eosinophil Infiltration” value with eosinophil infiltration [1] (50 mg/kg t.i.d. × 2 days, p.o.) is reported as 18.9%. In data set [2] (50 mg/kg), this molecule gave a concentration at 30 min of 2310 ng/mL.

Molecule `COc1cc(CC(=O)N(CCOc2ccc(C(=O)OC(C)C)cc2)CCN2CCOCC2)ccc1NC(=O)Nc1ccccc1C` [Compound 318, isopropyl 4-[2-N-[2-(4-morpholinyl)ethyl]-N-[3-methoxy-4-[N′-(2-methylphenyl)ureido]phenyl]acetamido]ethoxybenzoate] gave a concentration at 30 min in data set [2] (50 mg/kg) of 2100 ng/mL.

In turn, `COc1cc(CC(=O)N(CCOc2ccc(C(=O)O)cc2)CCN2CCC(F)(F)C2)ccc1NC(=O)Nc1ccccc1Br` [Compound 319, 4-[2-N-[2-(3,3-difluoro-1-pyrrolidinyl)ethyl]-N-[4-[N′-(2-bromophenyl)ureido]-3-methoxyphenyl]acetamido]ethoxybenzoic acid sodium salt] gave a concentration at 15 min in data set [2] (50 mg/kg) of 603 ng/mL.

As for `C=CCN(CC=C)CCN(CCOc1ccc(C(=O)O)cc1)C(=O)Cc1ccc(NC(=O)Nc2ccccc2Cl)c(OC)c1` [Compound 323, 4-[2-N-(N′, N′-diallyl)ethyl-N-[4-[N′-(2-chlorophenyl)ureido]-3-methoxyphenylacetamido]ethoxy]benzoic acid sodium salt], in data set [2] (50 mg/kg), the concentration at 15 min was 1420 ng/mL.
